Experimental data published in patent US10266609B2, “Immunomodulating beta-1,6-D-glucans” (Innate Biotherapeutics, LLC, priority 2014, dated 2019).

These compounds were tested on Anti-β-1,6-Glucan IgG antibodies (affinity purified from IVIG, Baxter) (assay: ELISA: binding of oligosaccharides to anti-β-1,6-glucan antibodies). Conditions: plate coated with oligosaccharide in PBS; 40 ug/mL anti-Beta 1,6 Glucan IgG; anti-human IgG-HRP, TMB, absorbance at 620 nm.
Procedure, shortened: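 Oligosaccharides coated overnight at 4° C in PBS, casein-blocked 1 h at room temperature, then incubated 45 min with 40 ug/mL anti-β-1,6-glucan IgG. Bound IgG detected with anti-human IgG-HRP (1:5000, 45 min, dark) and TMB; absorbance at 620 nm read every 1 min for 60 min.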
Further: key: a plus (+) sign indicates that the glucan was active in the assay; a minus (−) sign indicates that the glucan was not active; the '+/−' symbol indicates inconclusive results.

**Q.** Which “ELISA assay data: glucan active in detection of anti-beta glucan IgG” value (“ELISA assay data: glucan active” below) does the source give for `OC[C@H]1O[C@@H](OC[C@H]2O[C@@H](OC[C@H]3O[C@@H](OC[C@H]4O[C@@H](OC[C@H]5O[C@@H](OC[C@H]6O[C@@H](OC[C@H]7O[C@@H](OC[C@H]8O[C@@H](OC[C@H]9O[C@@H](OC[C@H]%10O[C@@H](OC[C@H]%11O[C@@H](OC[C@H]%12OC(O)[C@H](O)[C@@H](O)[C@@H]%12O)[C@H](O)[C@@H](O)[C@@H]%11O)[C@H](O)[C@@H](O)[C@@H]%10O)[C@H](O)[C@@H](O)[C@@H]9O)[C@H](O)[C@@H](O)[C@@H]8O)[C@H](O)[C@@H](O)[C@@H]7O)[C@H](O)[C@@H](O)[C@@H]6O)[C@H](O)[C@@H](O)[C@@H]5O)[C@H](O)[C@@H](O)[C@@H]4O)[C@H](O)[C@@H](O)[C@@H]3O)[C@H](O)[C@@H](O)[C@@H]2O)[C@H](O)[C@@H](O)[C@@H]1O` (stereo partly drawn) [OH, n=12, [O-β-D-glucopyranosyl-1,6-]11-D-glucose] here?
**A.** +

**Q.** For “N-[6-[(O-(β-D-glucopyranosyl-(1,6))3-β-D-glucopyranosyl](2RS,3R,4R,5R)-2,3,4,5-tetrahydroxyhexyl]-4-piperidylacetic acid [4-piperidine(CH2)CO2H, n=4]”, which “ELISA assay data: glucan active” value is on record?
**A.** +

**Q.** `[N-]=[N+]=NCCOC1OC(COC2OC(COC3OC(COC4OC(COC5OC(COC6OC(COC7OC(COC8OC(CO)C(O)C(O)C8O)C(O)C(O)C7O)C(O)C(O)C6O)C(O)C(O)C5O)C(O)C(O)C4O)C(O)C(O)C3O)C(O)C(O)C2O)C(O)C(O)C1O` (stereo not drawn) [α-O(CH2)2N3, n=8] was tested. Which “ELISA assay data: glucan active” value did it give?
**A.** +

**Q.** Which “ELISA assay data: glucan active” value does the source give for `COC1O[C@H](CO[C@@H]2O[C@H](CO[C@@H]3O[C@H](CO[C@@H]4O[C@H](CO[C@@H]5O[C@H](CO[C@@H]6O[C@H](CO[C@@H]7O[C@H](CO[C@@H]8O[C@H](CO[C@@H]9O[C@H](CO)[C@@H](O)[C@H](O)[C@H]9O)[C@@H](O)[C@H](O)[C@H]8O)[C@@H](O)[C@H](O)[C@H]7O)[C@@H](O)[C@H](O)[C@H]6O)[C@@H](O)[C@H](O)[C@H]5O)[C@@H](O)[C@H](O)[C@H]4O)[C@@H](O)[C@H](O)[C@H]3O)[C@@H](O)[C@H](O)[C@H]2O)[C@@H](O)[C@H](O)[C@H]1O` (stereo partly drawn) [OCH3, n=9, methyl [O-β-D-glucopyranosyl-1,6]8-D-glucopyranoside] here?
**A.** +

**Q.** With `CN(CCCCCN)CC(O)[C@@H](O)[C@H](O)[C@H](O)CO[C@@H]1O[C@H](CO[C@@H]2O[C@H](CO[C@@H]3O[C@H](CO[C@@H]4O[C@H](CO[C@@H]5O[C@H](CO)[C@@H](O)[C@H](O)[C@H]5O)[C@@H](O)[C@H](O)[C@H]4O)[C@@H](O)[C@H](O)[C@H]3O)[C@@H](O)[C@H](O)[C@H]2O)[C@@H](O)[C@H](O)[C@H]1O` (mixture of isomers) [N(Me),N(CH2)5NH2, n=5] as the compound, how does the “ELISA assay data: glucan active” value read?
**A.** +

**Q.** For `OC[C@H]1O[C@@H](OC[C@H]2O[C@@H](OC[C@H]3OC(OCCCl)[C@H](O)[C@@H](O)[C@@H]3O)[C@H](O)[C@@H](O)[C@@H]2O)[C@H](O)[C@@H](O)[C@@H]1O` (stereo partly drawn) [α-O(CH2)2Cl, n=3, 2-chloroethyl [O-β-D-glucopyranosyl-1,6]2-D-glucopyranoside], which “ELISA assay data: glucan active” value is on record?
**A.** +
